According to patent publication US6660804B1, “Cyclodextrin polymers and/or cyclodextrin derivatives with complexing properties and ion-exchange properties and method for the production thereof” (Universite des Sciences et Technologies de Lille, priority 1999, dated 2003):

Key:
[1] = Diffusion of CI Basic Red 22 through 12000-14000 d dialysis membrane (complexing); assay type: physicochemical; conditions: 50 ml 10^-4 M dye plus 0.2837 g additive inside membrane, 250 ml distilled water outside, after 5 hours of dialysis; dye alone 0.2722
Protocol: Three solutions of 50 ml of 10^−4 M CI Basic Red 22 basic dye were introduced into 12000-14000 d dialysis membranes. The first fraction contained the dye alone; the second contained the dye and 0.2837 g of β cyclodextrin (i.e., 5×10^−3 mol/l); the third contained the dye and 0.2837 g of soluble cyclodextrin copolymer obtained using the method described in Example 1. The three membranes with the three different dye solutions were each immersed in 250 ml of distilled water. Diffusion of the dye from the interior of the membrane into the distilled water surrounding the membrane was monitored by determining the absorbance of the external solution at 540 nanometers (nm). The absorbance values obtained for the external solutions for the three fractions after 5 hours of dialysis were 0.2722 for the first fraction, 0.1873 for the second fraction and only 0.0237 for the third fraction.

[2] = Diffusion of 2-naphthol through 12000-14000 d dialysis membrane (complexing); assay type: physicochemical; conditions: 50 ml 10^-3 M 2-naphthol plus 0.2837 g β cyclodextrin or 0.3317 g copolymer inside membrane, 250 ml distilled water outside, after 76 hours of dialysis; 2-naphthol alone 0.2865
Protocol: Three solutions of 50 ml of 10−3 M 2-naphthol were introduced into 12000-14000 d dialysis membranes. The first fraction contained 2-naphthol alone; the second contained the dye and 0.2837 g of β cyclodextrin (i.e., 5×10^−3 mol/l); the third contained the dye and 0.3317 g of the soluble cyclodextrin copolymer obtained using the method described in Example 1. The three membranes with the three different dye solutions were each immersed in 250 ml of distilled water. Diffusion of the dye from the interior of the membrane into the distilled water surrounding the membrane was monitored by determining the absorbance of the external solution at 327 nm. The absorbance values obtained for the external solutions for the three fractions after 76 hours of dialysis were 0.2865 for the first fraction, 0.3030 for the second fraction and only 0.2574 for the third fraction.

absorbance of the external solution at 540 nm [1]: 0.1873
absorbance of the external solution at 327 nm [2]: 0.3030
SMILES: OC[C@H]1O[C@@H]2O[C@H]3[C@H](O)[C@@H](O)[C@@H](O[C@H]4[C@H](O)[C@@H](O)[C@@H](O[C@H]5[C@H](O)[C@@H](O)[C@@H](O[C@H]6[C@H](O)[C@@H](O)[C@@H](O[C@H]7[C@H](O)[C@@H](O)[C@@H](O[C@H]8[C@H](O)[C@@H](O)[C@@H](O[C@H]1[C@H](O)[C@H]2O)O[C@@H]8CO)O[C@@H]7CO)O[C@@H]6CO)O[C@@H]5CO)O[C@@H]4CO)O[C@@H]3CO [β cyclodextrin]
